TGI data for 12 compounds are collected here from PubChem BioAssay (NCI).

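Results reflect a 48-hour exposure of cells in 96-well plates to compound at five concentrations. Definition used: TGI = concentration required for complete inhibition of growth.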

The subject of one assay is NCI-H226 lung. The assay is described as follows: NCI anticancer screen, dose series, 48 h.
For `CC1(C)OC2C(O)CN3CCS[C@H]3C2O1` (stereo not given in full), the TGI is more than 100 µM.
On the same count and under the same terms, the result for `CC1(C)OC(=C(C#N)C#N)C(C#N)=C1/C=C/c1ccncc1` reads 4.65 µM; that for `O=S(=O)(O)c1ccc(N=Nc2ccc(N=Nc3c(O)ccc4ccccc34)cc2)cc1`, more than 100 µM.

A further assay has as its system NCI-H23 lung. The assay is described as follows: NCI anticancer screen, dose series, 48 h.
`CSc1ncnc2c1cnn2CCCCO` had a TGI of more than 100 µM.
On the same count and under the same terms, to `COc1ccc(OC)c(C2Cc3cnc4nc(N)nc(N)c4c3C2)c1` (stereo not given) belongs more than 100 µM.
`COc1cc2c3c(c4cc(OC)c(OC)cc4c2cc1OC)C(=O)C1CCC(=O)N1C3` (stereo not given): the TGI is more than 100 µM.
Still for that read-out and setting: to `CC(=O)Nc1ccc2cc(C)c(=O)[nH]c2n1` belongs more than 100 µM; to `CCOC(=O)c1ccc(C(=O)/C(C#N)=C2\CCCN2C)[nH]1`, more than 100 µM; to `CN1CCN(CN2C(=O)C3C4C=CC(C3C2=O)C2C(=O)N(CN3CCN(C)CC3)C(=O)C42)CC1` (stereo not given), more than 78.4 µM.
The compound `Oc1ccc(-c2nc(-c3ccc(F)cc3)c(-c3ccc4ccccc4n3)[nH]2)cc1` gave a TGI of 25.4 µM.
Same read-out and setting: the result for `C[C@@]12CCC3C1C=C1C(=O)c4cc(O)ccc4C(=O)[C@]1(O2)[C@@]3(C)C=O` reads 13.5 µM; that for `CC(C)C[C@H]1[C@@H](OCc2ccccc2)COS(=O)N1[C@H](C)c1ccccc1` (stereo not given in full), more than 100 µM; that for `CC1(C)OC2C(O)CN3CCS[C@H]3C2O1` (stereo not given in full), more than 100 µM.
`CC1(C)OC(=C(C#N)C#N)C(C#N)=C1/C=C/c1ccncc1`: the TGI turned out to be 5.56 µM.
The same measure, in the same setting: the result for `O=S(=O)(O)c1ccc(N=Nc2ccc(N=Nc3c(O)ccc4ccccc34)cc2)cc1` reads more than 100 µM.

Another assay relates to OVCAR-4 ovarian. In words: NCI anticancer screen, dose series, 48 h.
Regarding `CSc1ncnc2c1cnn2CCCCO`, the TGI is more than 100 µM.
In turn, `COc1ccc(OC)c(C2Cc3cnc4nc(N)nc(N)c4c3C2)c1` (stereo not given) yielded a TGI of 53.8 µM.
Still for that read-out and setting: to `COc1cc2c3c(c4cc(OC)c(OC)cc4c2cc1OC)C(=O)C1CCC(=O)N1C3` (stereo not given) belongs more than 100 µM; to `CC(=O)Nc1ccc2cc(C)c(=O)[nH]c2n1`, more than 100 µM.
On the same count and under the same terms, the result for `CCOC(=O)c1ccc(C(=O)/C(C#N)=C2\CCCN2C)[nH]1` reads more than 100 µM.
On the same count and under the same terms, to `CN1CCN(CN2C(=O)C3C4C=CC(C3C2=O)C2C(=O)N(CN3CCN(C)CC3)C(=O)C42)CC1` (stereo not given) belongs more than 100 µM; to `Oc1ccc(-c2nc(-c3ccc(F)cc3)c(-c3ccc4ccccc4n3)[nH]2)cc1`, 26.3 µM; to `C[C@@]12CCC3C1C=C1C(=O)c4cc(O)ccc4C(=O)[C@]1(O2)[C@@]3(C)C=O`, 15.7 µM.
For `CC1(C)OC2C(O)CN3CCS[C@H]3C2O1` (stereo not given in full), the TGI was more than 100 µM.
Same read-out and setting: the result for `CC1(C)OC(=C(C#N)C#N)C(C#N)=C1/C=C/c1ccncc1` reads 8.91 µM.
Same read-out and setting: the result for `O=S(=O)(O)c1ccc(N=Nc2ccc(N=Nc3c(O)ccc4ccccc34)cc2)cc1` reads more than 100 µM.

The next assay concerns RXF 393 renal. In words: NCI anticancer screen, dose series, 48 h.
Compound `CSc1ncnc2c1cnn2CCCCO` registered a TGI of more than 100 µM.
Still for that read-out and setting: the result for `COc1ccc(OC)c(C2Cc3cnc4nc(N)nc(N)c4c3C2)c1` (stereo not given) reads 43.2 µM; that for `COc1cc2c3c(c4cc(OC)c(OC)cc4c2cc1OC)C(=O)C1CCC(=O)N1C3` (stereo not given), 89.6 µM.
On the same count and under the same terms, the result for `CC(=O)Nc1ccc2cc(C)c(=O)[nH]c2n1` reads more than 100 µM; that for `CCOC(=O)c1ccc(C(=O)/C(C#N)=C2\CCCN2C)[nH]1`, more than 100 µM; that for `CN1CCN(CN2C(=O)C3C4C=CC(C3C2=O)C2C(=O)N(CN3CCN(C)CC3)C(=O)C42)CC1` (stereo not given), more than 70.2 µM.
Same read-out and setting: to `Oc1ccc(-c2nc(-c3ccc(F)cc3)c(-c3ccc4ccccc4n3)[nH]2)cc1` belongs 31.9 µM; to `C[C@@]12CCC3C1C=C1C(=O)c4cc(O)ccc4C(=O)[C@]1(O2)[C@@]3(C)C=O`, 14.1 µM.
The compound `CC(C)C[C@H]1[C@@H](OCc2ccccc2)COS(=O)N1[C@H](C)c1ccccc1` (stereo not given in full) gave a TGI of 32.1 µM.
On the same count and under the same terms, to `CC1(C)OC2C(O)CN3CCS[C@H]3C2O1` (stereo not given in full) belongs more than 100 µM; to `CC1(C)OC(=C(C#N)C#N)C(C#N)=C1/C=C/c1ccncc1`, 5.07 µM; to `O=S(=O)(O)c1ccc(N=Nc2ccc(N=Nc3c(O)ccc4ccccc34)cc2)cc1`, more than 100 µM.

A further assay deals with SF-268 CNS. In words: NCI anticancer screen, dose series, 48 h.
`CSc1ncnc2c1cnn2CCCCO` displayed a TGI of more than 100 µM.
The same measure, in the same setting: to `COc1ccc(OC)c(C2Cc3cnc4nc(N)nc(N)c4c3C2)c1` (stereo not given) belongs more than 100 µM; to `COc1cc2c3c(c4cc(OC)c(OC)cc4c2cc1OC)C(=O)C1CCC(=O)N1C3` (stereo not given), more than 100 µM.
Regarding `CC(=O)Nc1ccc2cc(C)c(=O)[nH]c2n1`, the TGI was more than 100 µM.
Take `CCOC(=O)c1ccc(C(=O)/C(C#N)=C2\CCCN2C)[nH]1`: the TGI was more than 100 µM.
Still for that read-out and setting: the result for `CN1CCN(CN2C(=O)C3C4C=CC(C3C2=O)C2C(=O)N(CN3CCN(C)CC3)C(=O)C42)CC1` (stereo not given) reads more than 100 µM; that for `Oc1ccc(-c2nc(-c3ccc(F)cc3)c(-c3ccc4ccccc4n3)[nH]2)cc1`, 43.8 µM.
On the same count and under the same terms, the result for `C[C@@]12CCC3C1C=C1C(=O)c4cc(O)ccc4C(=O)[C@]1(O2)[C@@]3(C)C=O` reads 36.7 µM; that for `CC(C)C[C@H]1[C@@H](OCc2ccccc2)COS(=O)N1[C@H](C)c1ccccc1` (stereo not given in full), more than 100 µM.
The same measure, in the same setting: the result for `CC1(C)OC2C(O)CN3CCS[C@H]3C2O1` (stereo not given in full) reads more than 100 µM; that for `CC1(C)OC(=C(C#N)C#N)C(C#N)=C1/C=C/c1ccncc1`, 6.5 µM.
`O=S(=O)(O)c1ccc(N=Nc2ccc(N=Nc3c(O)ccc4ccccc34)cc2)cc1` showed a TGI of more than 100 µM.

The test system of another assay is SF-539 CNS. The assay is described as follows: NCI anticancer screen, dose series, 48 h.
With `CSc1ncnc2c1cnn2CCCCO`, the TGI is more than 100 µM.
On the same count and under the same terms, the result for `COc1ccc(OC)c(C2Cc3cnc4nc(N)nc(N)c4c3C2)c1` (stereo not given) reads 28 µM; that for `COc1cc2c3c(c4cc(OC)c(OC)cc4c2cc1OC)C(=O)C1CCC(=O)N1C3` (stereo not given), 39.8 µM; that for `CC(=O)Nc1ccc2cc(C)c(=O)[nH]c2n1`, more than 100 µM.
On to `CN1CCN(CN2C(=O)C3C4C=CC(C3C2=O)C2C(=O)N(CN3CCN(C)CC3)C(=O)C42)CC1` (stereo not given), for which the TGI was more than 83.3 µM.
